Assay results as given in ChEMBL document CHEMBL1201862, “PubChem BioAssay data set” (2004).
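All cell lines were grown in 96-well plates and treated with compound for 48 hours. GI50: concentration for 50% inhibition of growth.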 The source made the active and inactive calls. Rule as the data show it: active = GI50 up to about 1.1 µM and inactive = higher.

Assays:
Test in all cases: NCI-60 cell line screen, 48 h
[1] = system: EKVX
[2] = system: PC-3
[3] = system: HOP-92
[4] = system: SK-OV-3
[5] = system: SNB-19
[6] = system: OVCAR-8
[7] = system: TK-10
[8] = system: COLO 205
[9] = system: A549
[10] = system: SF-295
[11] = system: IGROV-1
[12] = system: 786-0
[13] = system: K562
[14] = system: UACC-62
[15] = system: SK-MEL-5
[16] = system: RPMI-8226
[17] = system: MCF7
[18] = system: MDA-MB-435
[19] = system: SR
[20] = system: NCI-H460
[21] = system: LOX IMVI
[22] = system: SK-MEL-2
[23] = system: HCT-116
[24] = system: SW-620
[25] = system: MOLT-4
[26] = system: MDA-N
[27] = system: SNB-75
[28] = system: UACC-257
[29] = system: UO-31
[30] = system: MDA-MB-231
[31] = system: CCRF-CEM
[32] = system: RXF 393
[33] = system: M14
[34] = system: T47D
[35] = system: DU-145
[36] = system: U-251
[37] = system: KM12
[38] = system: HL-60
[39] = system: HOP-62
[40] = system: SN12C
[41] = system: Malme-3M
[42] = system: SF-268
[43] = system: A498
[44] = system: CAKI-1
[45] = system: NCI-H226
[46] = system: NCI-H522
[47] = system: OVCAR-5
[48] = system: SK-MEL-28
[49] = system: ACHN
[50] = system: Hs-578T
[51] = system: OVCAR-3
[52] = system: OVCAR-4
[53] = system: HT-29
[54] = system: HCC 2998
[55] = system: HCT-15
[56] = system: SF-539
[57] = system: NCI/ADR-RES
[58] = system: NCI-H23

## O=C(O)C1CCCCC1c1c2ccc(=O)c(O)c-2oc2c(O)c(O)ccc12 (configuration not stated)
[1]
  GI50: 38.1 µM (inactive)
[2]
  GI50: > 100 µM (inactive)
[3]
  GI50: 31.6 µM (inactive)
[4]
  GI50: 50.6 µM (inactive)
[5]
  GI50: 29.4 µM (inactive)
[6]
  GI50: 22 µM (inactive)
[7]
  GI50: > 100 µM (inactive)
[8]
  GI50: > 100 µM (inactive)
[9]
  GI50: 13 µM (inactive)
[10]
  GI50: 23.7 µM (inactive)
[11]
  GI50: 26.2 µM (inactive)
[12]
  GI50: 19.3 µM (inactive)
[13]
  GI50: 17.9 µM (inactive)
[14]
  GI50: 23.6 µM (inactive)
[15]
  GI50: 25.5 µM (inactive)
[16]
  GI50: 29.9 µM (inactive)
[17]
  GI50: 14.2 µM (inactive)
[18]
  GI50: 16.7 µM (inactive)
[19]
  GI50: 27.5 µM (inactive)
[20]
  GI50: 37.7 µM (inactive)
[21]
  GI50: 13.8 µM (inactive)
[22]
  GI50: > 100 µM (inactive)
[23]
  GI50: 13.2 µM (inactive)
[24]
  GI50: 17.6 µM (inactive)
[25]
  GI50: 22.8 µM (inactive)
[26]
  GI50: 17.2 µM (inactive)
[27]
  GI50: 28.3 µM (inactive)
[28]
  GI50: > 100 µM (inactive)
[29]
  GI50: 44.4 µM (inactive)
[30]
  GI50: 18.6 µM (inactive)
[31]
  GI50: 0.18 µM (active)
[32]
  GI50: 69.7 µM (inactive)
[33]
  GI50: 64.7 µM (inactive)
[34]
  GI50: 46.2 µM (inactive)
[35]
  GI50: 52.1 µM (inactive)
[36]
  GI50: 7.4 µM (inactive)
[37]
  GI50: 35.2 µM (inactive)
[38]
  GI50: 20.7 µM (inactive)
[39]
  GI50: 31.6 µM (inactive)
[40]
  GI50: 19.3 µM (inactive)
[41]
  GI50: 95.7 µM (inactive)
[42]
  GI50: 9.38 µM (inactive)
[43]
  GI50: 21.7 µM (inactive)
[44]
  GI50: 65.6 µM (inactive)
[45]
  GI50: 12.1 µM (inactive)
[46]
  GI50: 14.5 µM (inactive)
[47]
  GI50: > 100 µM (inactive)
[48]
  GI50: 69.5 µM (inactive)
[49]
  GI50: 14 µM (inactive)
[50]
  GI50: 4.44 µM (inactive)
[51]
  GI50: 42.1 µM (inactive)
[52]
  GI50: 21.7 µM (inactive)
[53]
  GI50: 74.5 µM (inactive)

## N=C(N)c1ccc(OCCCCCOc2ccc(C(=N)N)cc2)cc1 [PENTAMIDINE]
[1]
  GI50: 19.1 µM (inactive)
[2]
  GI50: 18.5 µM (inactive)
[3]
  GI50: 28.5 µM (inactive)
[5]
  GI50: 10.7 µM (inactive)
[6]
  GI50: 13.7 µM (inactive)
[54]
  GI50: 12.2 µM (inactive)
[7]
  GI50: 18.9 µM (inactive)
[9]
  GI50: 11 µM (inactive)
[55]
  GI50: 24.8 µM
[12]
  GI50: 13.7 µM (inactive)
[13]
  GI50: 3.45 µM (inactive)
[14]
  GI50: 12.2 µM (inactive)
[56]
  GI50: 12.6 µM (inactive)
[17]
  GI50: 9.55 µM (inactive)
[18]
  GI50: 16.6 µM (inactive)
[20]
  GI50: 2.98 µM (inactive)
[21]
  GI50: 16.1 µM (inactive)
[22]
  GI50: 9.06 µM (inactive)
[23]
  GI50: 22.4 µM (inactive)
[26]
  GI50: 15.6 µM (inactive)
[30]
  GI50: 16.7 µM (inactive)
[32]
  GI50: 16.7 µM (inactive)
[57]
  GI50: 71.6 µM (inactive)
[33]
  GI50: 15.5 µM (inactive)
[34]
  GI50: 7.76 µM (inactive)
[35]
  GI50: 13.2 µM (inactive)
[36]
  GI50: 8.26 µM (inactive)
[38]
  GI50: 19.3 µM (inactive)
[39]
  GI50: 14.9 µM (inactive)
[40]
  GI50: 6.55 µM (inactive)
[42]
  GI50: 17.2 µM (inactive)
[44]
  GI50: 57 µM (inactive)
[47]
  GI50: 21 µM (inactive)
[48]
  GI50: 14.7 µM (inactive)
[49]
  GI50: 23.6 µM (inactive)
[50]
  GI50: 14.9 µM (inactive)
[58]
  GI50: 10.4 µM (inactive)
[51]
  GI50: 14.3 µM (inactive)
[52]
  GI50: 10.9 µM (inactive)
